We go through 16 compounds from PubChem BioAssay (NCI).

SMILES strings stand for the structures.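 These data come from cells grown in 96-well plates and exposed to compound for 48 hours at five concentrations. The concentration for full growth arrest is given as TGI.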

Common to all, as to experiment: NCI anticancer screen, dose series, 48 h
The subject of test [1] is M14 melanoma.
The subject of test [2] is MDA-MB-435.
The subject of test [3] is NCI-H522 lung.
In test [4] the test system is UACC-62 melanoma.
For test [5], the system named is CAKI-1 renal.
Test [6] deals with OVCAR-5 ovarian.
Test [7] concerns CCRF-CEM leukemia.
Test [8] concerns TK-10 renal.
The test system of test [9] is HS 578T breast.
For test [10], the system named is SK-MEL-5 melanoma.
The test system of test [11] is SN12C renal.
Test [12] relates to SW-620 colon.
The test system of test [13] is SF-539 CNS.
Test [14] relates to HL-60(TB) leukemia.
Test [15] concerns MDA-N.
The test system of test [16] is UO-31 renal.
Test [17] deals with SNB-19 CNS.

In the case of `COC(=O)c1cc(C#N)[nH]c1-c1ccc(Br)s1`, the TGI in test [1] is 22.9 µM; in test [2] it was 34.5 µM; in test [3], 19.6 µM; in test [4] it was 26 µM; in test [5], > 50.7 µM; in [6], 24.1 µM. Further, the TGI amounted to 49.9 µM in [7]; 25.7 µM in test [8]; 20.8 µM in [9]; 15.3 µM in test [10]; 26 µM in [11]; 29.9 µM in test [12]. The TGI in test [13] came to 27.2 µM; in test [14], 36.5 µM; in [15], 27.9 µM; in test [16], 15.6 µM; in test [17], 22.3 µM.
Consider `Cc1cc(N(C)c2ccccc2)nc(N(C)c2ccccc2)n1`, for which the TGI in [1] is > 100 µM; in [2], > 100 µM; in test [3], > 100 µM; in test [4] it was > 100 µM; in test [5] it was > 100 µM; in test [6], 52.6 µM. For the same compound, the TGI was 46.5 µM in test [7]; > 100 µM in test [8]; > 100 µM in [9]; 69.1 µM in test [10]; > 100 µM in [11]; > 100 µM in [12]. The TGI was 66.5 µM in test [13]; 59.6 µM in test [14]; > 100 µM in test [15]; > 100 µM in test [16]; > 100 µM in test [17].
With `C[C@H]1[C@H]2[C@H](C[C@@]3(C)C4=CC[C@H]5C(C)(C)[C@@H](OC6OCC(O)C(O)C6O)CC[C@@]56C[C@@]46CC[C@]23C)O[C@@]2(O)[C@@H]1OC(C)(C)[C@H]2O` (some centres not stated), the TGI in [1] was 10.7 µM; in test [2], 2.17 µM; in test [3] it was 2.42 µM; in test [4] it was 5.32 µM; in test [5], 5.57 µM; in [6] it was 11.5 µM. The TGI was found to be 3.24 µM in test [7]; 3.95 µM in test [8]; 3.7 µM in test [9]; 4.71 µM in test [10]; 2.75 µM in test [11]; 3.74 µM in test [12]. The TGI was determined as 6.88 µM in test [13]; 28.8 µM in test [14]; 7.48 µM in test [15]; 10.2 µM in [16]; 8.4 µM in test [17].
Take `CN(C)/C=N/c1cc(=O)n(C)c(=O)n1C`: the TGI in [1], in [2], in test [3], in test [4], in [5] and in [6] was > 100 µM throughout. The TGI in test [7], in test [8], in test [9], in [10], in [11] and in [12] was > 100 µM in each case. Further, the TGI in [13], in test [14], in test [15], in [16] and in test [17] was > 100 µM in each case.
In the case of `O=C(O[C@H](/C=C/c1ccccc1)P1(=O)N(Cc2ccccc2)[C@H]2CCCC[C@@H]2N1Cc1ccccc1)c1ccccc1`, the TGI in test [1] was > 100 µM; in test [2], 46.2 µM; in test [3], > 100 µM; in [4], > 100 µM; in [5] it was 5.93 µM; in [6] it was > 100 µM. For the same compound, the TGI in test [7] is > 100 µM; in test [8], > 100 µM; in [9] it was > 100 µM; in test [10] it was 4.1 µM; in test [11], 14.5 µM; in test [12] it was > 100 µM. Besides, the TGI is > 100 µM in test [13]; > 100 µM in [14]; > 100 µM in [15]; 38.3 µM in [16]; > 100 µM in test [17].
`C=C(Cl)[C@](Cl)(CBr)CC[C@@H](Br)C(C)(C)Cl`: the TGI turned out to be 30.7 µM in test [1]; 4.03 µM in [2]; 30.2 µM in test [3]; 19.3 µM in [4]; 0.751 µM in test [5]; 2.98 µM in [6]. For the same compound, the TGI in test [7] was found to be 46.6 µM; in test [8], 3.4 µM; in test [9], 1.41 µM; in test [10] it was 24.9 µM; in test [11], 17.6 µM; in [12], 5.03 µM. The TGI in [13] is 1.28 µM; in test [14], 2.06 µM; in test [15], 2.47 µM; in test [16], 2.41 µM; in test [17], 3.27 µM.
Regarding `COC(=O)c1ccccc1C1CN=NC12Cc1cc3c(cc1C2=O)CCC3` (configuration not stated), the TGI in test [1], in test [2], in test [3], in test [4], in [5] and in test [6] was > 100 µM throughout. Also, the TGI was > 100 µM in test [7]; > 100 µM in test [8]; > 100 µM in test [9]; 48.7 µM in test [10]; > 100 µM in test [11]; > 100 µM in [12]. The TGI was > 100 µM in test [13]; 61.5 µM in [14]; > 100 µM in test [15]; > 100 µM in [16]; > 100 µM in test [17].
Turning to `COC(=O)NCCc1[nH]nc2c1C(=O)C=C(Nc1ccccc1OC)C2=O`, the TGI in [1] was 62.9 µM; in test [2], 30.8 µM; in test [3], 78.2 µM; in test [4] it was 39.9 µM; in test [5], 94.6 µM; in [6], > 100 µM. Moreover, the TGI in test [7] was 88.9 µM; in [8], > 100 µM; in [9] it was 99.7 µM; in [10] it was 27.1 µM; in test [11], > 100 µM; in test [12], 47.8 µM. In addition, the TGI in [13] was 34.4 µM; in test [14], 52.7 µM; in test [15] it was 35.1 µM; in test [16] it was > 100 µM; in [17], > 100 µM.
As to `COC1=CC(=O)C2=C(C1=O)[C@H]1CC[C@]3(C)C(=O)CC[C@H]3[C@@H]1CC2`, the TGI in test [1] is > 100 µM; in test [2], 45.6 µM; in test [3], 59.8 µM; in [4], > 100 µM; in [5], 77 µM; in test [6] it was 44.6 µM. Moreover, the TGI was 26.9 µM in test [7]; > 100 µM in test [8]; 70.5 µM in test [9]; 33.2 µM in [10]; 44.5 µM in [11]; 67.7 µM in [12]. In addition, the TGI in [13] was 38.1 µM; in test [14] it was 22.4 µM; in test [15], 65.1 µM; in [16], 56.8 µM; in test [17] it was > 100 µM.
Take `O=C(NCCc1ccccn1)c1ccc2cc(C(=O)N3CC(CCl)c4ccc([N+](=O)[O-])cc43)[nH]c2c1` (configuration not stated): the TGI in test [1] is > 100 µM; in test [2] it was > 100 µM; in [3], > 86.7 µM; in test [4], > 67.4 µM; in test [5] it was > 52.7 µM; in [6], > 100 µM. The TGI is > 100 µM in test [7]; 66.7 µM in [8]; > 100 µM in test [9]; > 100 µM in test [10]; > 100 µM in test [11]; > 100 µM in test [12]. Also, the TGI in [13] is > 100 µM; in test [14], > 100 µM; in [15] it was > 100 µM; in [16], > 92.8 µM; in [17] it was 87.5 µM.
As for `O=C(O)CCC1C(=O)C2CCN1CC2` (configuration not stated), the TGI in test [1], in test [2], in test [3], in [4], in [5] and in test [6] was > 100 µM throughout. Also, the TGI in test [7], in test [8], in [9], in test [10], in [11] and in test [12] was > 100 µM in each case. The TGI in test [13], in test [14], in [15], in test [16] and in test [17] was > 100 µM throughout.
For `C=CC(=O)C#Cc1cnc(OC)nc1OC`, the TGI in [1] turned out to be 37.7 µM; in test [2], 51.5 µM; in [3], 42.7 µM; in test [4] it was 34.4 µM; in [5], 21.1 µM; in test [6], 33.9 µM. Besides, the TGI in [7] was 2.97 µM; in [8], 35.2 µM; in test [9] it was > 88.3 µM; in test [10], 43.5 µM; in test [11], 37.7 µM; in [12], 23.4 µM. Besides, the TGI in [13] is 30.5 µM; in test [14], 3.25 µM; in test [15] it was 40.5 µM; in test [16] it was 33.5 µM; in [17] it was > 58.9 µM.
With `O=C1NC(=Nc2ccccc2Cl)N/C1=C\c1c(Cl)cccc1Cl`, the TGI in test [1] is > 100 µM; in test [2] it was > 100 µM; in [3] it was 58.7 µM; in [4], > 100 µM; in [5], > 100 µM; in test [6] it was 83.7 µM. Besides, the TGI in test [7] is > 100 µM; in test [8], 71.7 µM; in test [9], 99 µM; in test [10], 47.2 µM; in [11], 84.6 µM; in test [12], > 100 µM. Besides, the TGI in test [13] was > 100 µM; in test [14] it was 54.2 µM; in test [15], > 100 µM; in [16] it was 66.3 µM; in test [17] it was > 100 µM.
For the compound `C=C1C(=O)O[C@H]2C(=O)[C@H](C)CCC/C(C)=C/CC[C@@]3(C)O[C@@H]3C[C@@H]12`, the TGI is 3.28 µM in test [1]; 5.82 µM in test [2]; 4.06 µM in [3]; 16.8 µM in test [4]; 3.23 µM in test [5]; 18.9 µM in test [6]. The TGI in test [7] is 4.18 µM; in test [8], 1.65 µM; in test [9] it was 28.4 µM; in test [10], 20.7 µM; in test [11], 18.3 µM; in test [12], 3.54 µM. For the same compound, the TGI was 6.63 µM in [13]; 6.8 µM in test [14]; 11.5 µM in [15]; 3.18 µM in test [16]; 24.1 µM in test [17].
Regarding `CSc1ccccc1NC1=NCCO1`, the TGI in test [1], in test [2], in [3], in test [4], in test [5] and in [6] was > 100 µM throughout. The TGI in test [7], in test [8], in test [9], in test [10], in [11] and in test [12] was > 100 µM throughout. The TGI in [13], in [14], in [15], in [16] and in test [17] was > 100 µM throughout.
As for `CC(=O)OC[C@@]1(C)[C@@H]2[C@@H]3[C@@]4(CO[C@]3(C)C(=O)[C@@]3(OC(C)=O)C[C@H](C)[C@H](OC(C)=O)[C@@H]3[C@H]4OC(C)=O)[C@H](OC(=O)c3ccccc3)C[C@@H]21`, the TGI in test [1], in test [2], in test [3], in test [4], in test [5] and in [6] was > 100 µM throughout. In addition, the TGI in [7], in [8], in test [9], in test [10], in test [11] and in [12] was > 100 µM throughout. The TGI in test [13], in test [14], in test [15], in test [16] and in test [17] was > 100 µM in each case.
